We go through one compound from patent US8741965B2, “Method of administering a pheromone composition to an animal to modify the animals behavior over an extended period of time” (Sergeant's Pet Care Products, Inc., priority 2011, dated 2014).

One assay has as its system nervous dogs. Put plainly: Example 11 Study 3: DAP spray versus RP spray with startle. In kind it is in vivo, dog. The text has this: Eight dogs were obtained from a local contract research facility and assessment was made as to general dog health, behavior and heart rate. The dogs were estimated to be 2 to 7 years of age, mixed breed, and weighed averagely 8.1±0.18 kg at the start of the studies. […] Upon arrival each dog was bathed using shampoo containing flea and tick medicine (Hartz Mountain Corp. Secaucus, N.J. USA), and their body hair was shaved. Each dog was kept in a single room, which had 100% fresh air intake and exhaust. The dogs were fed twice (am and pm) per day ad libitum. At that time, the room was cleaned and the dogs obtained extra exercise. Water was available ad libitum.
Dog behavior was captured on video media at a sampling rate of 30 frames per second. Video records were reviewed in real time (with tape playing 30 frames per second). A scan sampling method was used to record dog behaviors each minute or each 5 minutes depending on the particular study. If the sample period was 120 minutes with four periods (0-30=0, 30-60=30, 60-90=60, and 90-120-90 min), then a scan sample was recorded each 1 minute. If the sample period was 24 hours, then the scan sample was collected each 5 minutes and summarized each hour. For example, pacing is when a dog walks in a stereotyped manner for minutes to hours. Because it was not easy to distinguish walking from pacing, the behaviors were merged. In addition, the video records could not clearly distinguish lying down and awake versus lying down and sleeping, therefore there was no separate description for these two behaviors.
Heart rate during the studies was measured by the use of a non-invasive telemetry system (Data Science International, St. Paul, Minn., USA). Leads were placed in contact with the dogs' shaved skin. Sensors measured heart rate, surface temperature and general activity. Data were transmitted to a receiving computer in another room. The sampling rate varied with the study, but was 5 seconds for the first two hours after treatments and then each 1 minute for 24 hours (depending on the particular study). For surface temperature measurements of the dog subjects, a thermistor was located against the skin of each dog. It recorded the surface temperature to the neared 0.1° C. on the same interval as the heart rate data.
Behavior and physiological data (heart rate and surface temperature) were analyzed by least squares analysis of variance using SAS (2011) software and the general linear models procedures. The experimental design of each study was a specialized randomized complete block in a Latin square design with data collected as a split plot over time. Dogs represented the blocks. Each dog received each treatment randomly in successive days or weeks. The statistical model included effects of treatment (TRT), dog, dog by treatment (TRT*DOG; error term used to assess treatment and dog effects), time (HR), treatment by time (TRT*HR), and residual error (SE; used to test remaining effects). Behavior data were collected and analyzed as counts per time period, but for clarity of presentation, the data are reported as percentage of time dogs engaged in each behavior.
In Study 1 and 2, the DAP was applied as a collar and the rabbit pheromone as a spray. To test if the physical form of the pheromone/INTEROMONE® impacted its efficacy, Study 3 examined the behavior and heart rate effects of Dog Appeasing Pheromone (DAP) and rabbit pheromone (RP) both applied as a spray after startle in order to obtain a direct comparison between sprays. Accordingly, Study 3 examined the relative effect of DAP spray (DAPS) and RP spray on the behavior and heart rate of the dog subjects. Both treatments were given to each dog in a random order. In this study, the Behavior data were collected from dogs 1-8 while heart rate data were collected from dogs 1-4.

Assay [1] deals with dogs. The assay is described as follows: Spray to face of dogs, heart rate for two hours (Example 10). In kind it is in vivo, dog. As for the experimental part: A spray composition comprising rabbit pheromone as an INTEROMONE® was prepared in accordance with Example 9. Four dogs were fitted with cloth jackets that contained electrodes to measure their heart rate. One dog was sprayed with the 2-methylbut-2-enal composition, one dog was sprayed with a placebo, and two dogs were sprayed with pheromone-based products currently on the market for purposes of modifying behavior. […] Data were collected for two hours following application of the spray to the facial/snout region of the four dogs. The control period was indicated as time zero (“0”) on FIG. 1 and FIG. 2.

The subject of assay [2] is dogs. Put plainly: Overall conclusions and meta-analysis across Studies 1-4. In kind it is in vivo, dog. As for the experimental part: Three delivery methods were examined (collar, spray, and room diffuser) and conclusions may be drawn about their efficacy. First, the pheromones were similar in efficacy when applied as a collar or spray. When used as a room diffuser, the pheromones/INTEROMONE® compositions had fewer significant effects compared with when they were delivered in collar or spray form. […] Meta-analyses were performed across studies to identify potential over-arching effects (FIGS. 18A and B). […] The reaction of most dogs to handling or startle was to go lay down; but the dogs exposed to rabbit INTEROMONE®were more likely to sit. Other than this general effect, each other finding must be considered within the context of the form of delivery (spray, collar or room diffuser) and the response of individual dog.

Assay [3] concerns dogs diagnosed as nervous. Put plainly: Collars and heart rate of nervous dogs, 24 h basal and fog horn startle (Example 5). In kind it is in vivo, dog. The conditions noted are these: collar. As for the experimental part:
Dogs diagnosed as being “nervous” were treated with four different treatments on different days: Placebo collar, Pheromone only collar (Serg), Rabbit INTEROMONE® collar (RP) (prepared in accordance with Example 1), and INTEROMONE® Plus Pheromone collar (Serg+RP) (prepared according to formulation provided in Example 3). Each dog experienced a given collar for 24 hours. Heart rate of the dogs was measured by remote telemetry. FIG. 22 illustrates the effects of the collars on heart rate collected over a period of 24 hours.
Each dog experienced a loud noise (fog horn) during a 2 second blast. The noise startled the dogs. Each dog had the collar on before, during and after the startle experience. […] The data illustrates that Serg alone had no effect on the startled dog heart rate. […] The data further indicate that only the RP is effective in reducing the heart rate of startled dogs.

Another assay has as its system anxious dogs. The assay is described as follows: Efficacy of pheromone/INTEROMONE collars on dog heart rate, 24 h baseline and after Fog Horn startle (Example 4). In kind it is in vivo. As for the experimental part: Heart rate and surface temperature were measured by telemetry.
The study was conducted in two phases: Baseline and after startle. In the baseline study each of the four dogs received each collar treatment in random order for two days at a time. Heart rate and surface temperature were collected each 5 seconds for 24 hours. In the second phase, dogs were startled with a 110 dB Fog Horn and heart rate was measured each 1 second for 10 minutes before and 2 hours after startle.

The subject of another assay is rabbit pups. The conditions noted are these: presented on its own to rabbit pups; Schaal et al. 2003; cited from earlier work.

Molecules are shown by their SMILES.

Take `C/C=C(\C)C=O` [RP, 2-methylbut-2-enal]: in the assay with nervous dogs (DAPS or RP spray with startle), the Defecate is 0.93 % of time, the Drink was 0 % of time, the Eat is 0 % of time and the Lick self was 0 % of time. Further, in the assay with nervous dogs (DAPS or RP spray with startle), the Lying down is 43.8 % of time, the Pace-walk is on record as 9.8 % of time, the Sitting is given as 35.4 % of time and the Standing is recorded as 3.7 % of time. Further, the Urinate with nervous dogs (DAPS or RP spray with startle) was 0 % of time. Also, the “sitting, main effect of treatment” value with nervous dogs (RP spray versus DAP spray, startle) is reported as “tended to sit more (P=0.068) than DAP sprayed dogs”. Also, in the assay on nervous dogs (spray and startle, dogs 1-4, FIG. 14B), the “heart rate change relative to time zero” value is recorded as “generally unchanged over time, although were lower than baseline rate”. Also, in the assay with nervous dogs (sprays, during startle, FIG. 13), the “lying down of individual dogs” value is listed as “Dog 3 showed increased lying down”. Besides, the “pacing-walking and standing of individual dogs” value in the assay on nervous dogs (sprays, startle, FIGS. 11 and 12) was “dogs 1 and 4 had increased pacing-walking”. For the same compound, the “reduction of average dog heart rate” value in the assay on dogs [1] (FIG. 1) came out at 24.5 beats/min per hour. Besides, the “heart rate reduction over the two hour period” value in the assay on dogs [1] (compared to marketed products and placebo) was 30%. Besides, the “behaviors in meta-analysis across studies” value with dogs [2] (Studies 1, 2 and 4, FIG. 18) was “Only dog sitting behavior was increased”. The “overall effect on dog behavior and physiology” value with dogs [2] (collar, spray and room diffuser, all four studies) is “most consistent or largest effect on dog behavior and physiology”. In assay [3] (basal testing, versus placebo, FIG. 22), the “heart rate collected over 24 hours” value is listed as “increased heart rate”. For the same compound, the “heart rate during startle” value in assay [3] (fog horn 2 second blast, versus control, FIG. 24) was “lower heart rate during startle compared to control dogs”. The “heart rate over 24 hours with collar (overall and individual dogs)” value in the assay with anxious dogs (baseline phase, versus Placebo, FIG. 19) is “increased the heart rate of dog 1”. Further, in the assay with anxious dogs (collar, 110 dB Fog Horn startle, FIG. 20), the “heart rate after startle (individual dogs)” value is “Dogs 1 and 4 had reduced heart rate”. Also, in the assay with anxious dogs (collar, after startle, FIG. 21, placebo 15 bpm), the “decline in heart rate from hour of startle (hour 1) to next hour (hour 2), slope of regression” value was 26.6 bpm. Further, in the assay with rabbit pups, the “concentration sufficient to elicit full nipple search and grasping behavior (as low as)” value was 10 ng/mL.
